Results as given in patent EP0326331B1, “Substituted quinolines and cinnolines” (Dow AgroSciences LLC, priority 1988, dated 1989).

Assays:
Format in all cases: in vivo
[1] = tested on: Erysiphe graminis tritici (powdery mildew); test: Test 1 greenhouse foliar spray screen, powdery mildew on wheat; conditions: disease control rating, foliar spray on wheat, 400 ppm (+++ at 100 ppm)
corn rootworm = test: Mite/insect screen, CRW; conditions: percent mortality, read-out: CRW RESULTS %; for mortality at 12 ppm: CRW RATE 12.00 PPM; for mortality at 24 ppm: CRW RATE 24.00 PPM
Procedure: (§1) The compounds of Examples 1-295 were tested for miticidal and insecticidal activity in the following mite/insect screen.
(§2) Each test compound was formulated by dissolving the compound in acetone/alcohol (50:50) mixture containing 23 g of "TOXIMUL R" (sulfonate/nonionic emulsifier blend) and 13 g of "TOXIMUL S" (sulfonate/nonionic emulsifier blend) per liter. These mixtures were then diluted with water to give the indicated concentrations.
(§3) After standard exposure periods, percent mortality was evaluated. […]

[2] = tested on: Pyricularia oryzae (rice blast); test: whole plant or invertebrate; conditions: disease control rating, foliar spray on rice, 400 ppm (+++ at 100 ppm)
[3] = tested on: melon aphids (Aphis gossypii Glover); test: Mite/insect screen, MA; conditions: Aphis gossypii, percent mortality, SAW, read-out: MA RESULTS %; for mortality at 200 ppm: SM & MA RATE 200 PPM; for mortality at 400 ppm: SM & MA RATE 400 PPM
Procedure: as §1, §2
(§4) Other plants in the same treatment pot were left uninfested. The leaves were then sprayed with 5 ml of test solution using a DeVilbiss atomizing sprayer at 10 psi. Both surfaces of the leaves were covered until runoff, and then allowed to dry for one hour. Two uninfested leaves were then excised and placed into a Petri dish containing southern armyworm (Spodopetra eridania Cramer).
as §3

[4] = tested on: southern armyworm (Spodopetra eridania Cramer); test: Mite/insect screen, SAW; conditions: Spodoptera eridania, percent mortality, SAW, read-out: SAW RESULTS %; for mortality at 200 ppm: SM & MA RATE 200 PPM; for mortality at 400 ppm: SM & MA RATE 400 PPM
Procedure: as §1, §2, §4, §3

[5] = tested on: Twospotted spider mites (Tetranychus urticae Koch); test: Mite/insect screen, SM; conditions: for mortality at 200 ppm / mortality at 400 ppm: Tetranychus urticae, percent mortality, SAW, read-out: SM RESULTS %; for mortality at 200 ppm: SM & MA RATE 200 PPM; for mortality at 400 ppm: SM & MA RATE 400 PPM
Procedure: as §1, §2, §4, §3

[6] = tested on: Pseudoperonospora cubensis (downy mildew); test: Test 1 greenhouse foliar spray screen, downy mildew on squash; conditions: disease control rating, foliar spray on squash, 400 ppm (+++ at 100 ppm)
[7] = tested on: Puccinia recondita tritici (leaf rust); test: Test 1 greenhouse foliar spray screen, leaf rust on wheat; conditions: disease control rating, foliar spray on wheat, 400 ppm (+++ at 100 ppm)
[8] = tested on: Botrytis cinerea (gray mold); test: Test 1 greenhouse foliar spray screen, gray mold on grape berries; conditions: disease control rating, spray on grape berries, 400 ppm (+++ at 100 ppm)

Row | Structure (SMILES) | POWD MDEW [1] | mortality at 12 ppm (corn rootworm) [%] | mortality at 24 ppm (corn rootworm) [%] | RICE BLAST [2] | mortality at 200 ppm [3] [%] | mortality at 400 ppm [3] [%] | mortality at 200 ppm [4] [%] | mortality at 400 ppm [4] [%] | mortality at 200 ppm [5] [%] | mortality at 400 ppm [5] [%] | DOWN MDEW [6] | LEAF RUST [7] | GRAY MOLD [8] | activity as miticides ([5]; summary statement in the description)
1 | FC(F)(F)c1cccc2c(NCCc3ccc(Cl)cc3)ccnc12 [Example 86, N-[2-(4-chlorophenyl)ethyl]-8-(trifluoromethyl)-4-quinolinamine] | - (0-19% control at 400 ppm) | 0 | 0 | - (0-19% control at 400 ppm) | 0 | 0 | 0 | 0 | 0 | 0 | + (20-89% control at 400 ppm) | + (20-89% control at 400 ppm) | - (0-19% control at 400 ppm) | –
2 | Fc1cccc2c(NCCc3ccc(Oc4ccccc4)cc3)ccnc12 [Example 90, 8-fluoro-N-[2-(4-phenoxyphenyl)ethyl]-4-quinolinamine] | - (0-19% control at 400 ppm) | 0 | 0 | +++ (90-100% control at 100 ppm) | 80 | 0 | 100 | 0 | 80 | 0 | +++ (90-100% control at 100 ppm) | +++ (90-100% control at 100 ppm) | - (0-19% control at 400 ppm) | particularly excellent activity
3 | COc1ccccc1CCNc1ccnc2cc(Cl)ccc12 [Example 100, 7-chloro-N-[2-(2-methoxyphenyl)ethyl]-4-quinolinamine] | + (20-89% control at 400 ppm) | 0 | 0 | + (20-89% control at 400 ppm) | 0 | 0 | 0 | 0 | 0 | 0 | + (20-89% control at 400 ppm) | + (20-89% control at 400 ppm) | - (0-19% control at 400 ppm) | –
4 | Cc1cc(NCCc2ccc(Cl)cc2)c2ccccc2n1 [Example 102, N-[2-(4-chlorophenyl)ethyl]-2-methyl-4-quinolinamine] | + (20-89% control at 400 ppm) | 0 | 0 | + (20-89% control at 400 ppm) | 0 | 0 | 0 | 50 | 0 | 0 | - (0-19% control at 400 ppm) | - (0-19% control at 400 ppm) | - (0-19% control at 400 ppm) | –
5 | Cc1ccc(C)c2c(NCCc3ccc(Cl)cc3)ccnc12 [Example 109, N-[2-(4-chlorophenyl)ethyl]-5,8-dimethyl-4-quinolinamine] | + (20-89% control at 400 ppm) | – | 0 | + (20-89% control at 400 ppm) | – | 0 | – | 0 | – | 0 | +++ (90-100% control at 100 ppm) | ++ (90-100% control at 400 ppm) | - (0-19% control at 400 ppm) | –
6 | Nc1cccc2c(NCCc3ccc(Cl)cc3)ccnc12 [Example 110, N(4)-[2-(4-chlorophenyl)ethyl]-4,8-quinolinediamine] | - (0-19% control at 400 ppm) | 0 | 0 | + (20-89% control at 400 ppm) | 0 | 0 | 0 | 0 | 0 | 0 | ++ (90-100% control at 400 ppm) | ++ (90-100% control at 400 ppm) | - (0-19% control at 400 ppm) | –
7 | Clc1ccccc1CCNc1ccnc2c(Cl)cccc12 [Example 115, N-[2-(2-chlorophenyl)ethyl]-8-chloro-4-quinolinamine] | - (0-19% control at 400 ppm) | 0 | 0 | + (20-89% control at 400 ppm) | 0 | 0 | 0 | 0 | 0 | 0 | + (20-89% control at 400 ppm) | - (0-19% control at 400 ppm) | - (0-19% control at 400 ppm) | –
8 | CC(=O)N(CCc1ccc(Cl)cc1)c1ccnc2ccc(F)cc12 [Example 121, N-[2-(4-chlorophenyl)ethyl]-N-(6-fluoro-4-quinolinyl)acetamide] | + (20-89% control at 400 ppm) | 0 | 0 | - (0-19% control at 400 ppm) | 0 | 0 | 0 | 0 | 0 | 0 | + (20-89% control at 400 ppm) | ++ (90-100% control at 400 ppm) | - (0-19% control at 400 ppm) | –
9 | COc1ccc(CCN(C(C)=O)c2ccnc3cc(Cl)ccc23)cc1 [Example 125, N-(7-chloro-4-quinolinyl)-N-[2-(4-methoxyphenyl)ethyl]acetamide] | + (20-89% control at 400 ppm) | 0 | 0 | - (0-19% control at 400 ppm) | 0 | 0 | 0 | 0 | 0 | 0 | - (0-19% control at 400 ppm) | - (0-19% control at 400 ppm) | - (0-19% control at 400 ppm) | –
10 | CC(=O)N(CCc1ccc(Cl)cc1Cl)c1ccnc2cc(C(F)(F)F)ccc12 [Example 127, N-[2-(2,4-dichlorophenyl)ethyl]-N-[7-(trifluoromethyl)-4-quinolinyl]acetamide] | + (20-89% control at 400 ppm) | 0 | 0 | + (20-89% control at 400 ppm) | 0 | 0 | 0 | 0 | 0 | 0 | + (20-89% control at 400 ppm) | + (20-89% control at 400 ppm) | - (0-19% control at 400 ppm) | –
11 | CC(=O)N(CCc1ccc(C(C)(C)C)cc1)c1ccnc2c(F)cccc12 [Example 128, N-[4-(t-butyl)phenyl]ethyl-N-(8-fluoro-4-quinolinyl)acetamide] | - (0-19% control at 400 ppm) | 0 | 0 | + (20-89% control at 400 ppm) | 0 | 0 | 0 | 0 | 0 | 0 | - (0-19% control at 400 ppm) | + (20-89% control at 400 ppm) | - (0-19% control at 400 ppm) | –
12 | CC(=O)N(CCc1ccc(-c2ccccc2)cc1)c1ccnc2c(F)cccc12 [Example 130, N-[2-(1,1'-biphenyl)-4-ylethyl]-N-(8-fluoro-4-quinolinyl)acetamide] | - (0-19% control at 400 ppm) | 0 | 0 | - (0-19% control at 400 ppm) | 0 | 0 | 0 | 0 | 0 | 0 | - (0-19% control at 400 ppm) | - (0-19% control at 400 ppm) | - (0-19% control at 400 ppm) | –
